The record followed here is patent publication US6277583A, “Affinity labeling libraries and applications thereof” (Conjuchem, Inc., priority 1996, dated 2001).

This test deals with T1, HSA (Homo sapiens, UniProt P02768).
T1 construct: purchased Sigma A-8673
As to the kind of experiment: Rates of reaction (kinetics of biotinylation) of library members with HSA. The format is binding. Here is the method:
The rates of reaction of four members of the library with HSA were determined, and the kinetics describing the biotinylation of HSA by these members of the library is shown in FIG. 2. The curves all show a characteristic early fast phase of reaction followed by a slowing of the reaction at later times. The maximal rate of reaction is determined by chosing the best straight line fit for the early values of the time course.
Members of the library differ in their structures from that of the thiophenyl ester of biotin in that a pentapeptide with a C- terminus amide is present and the ester function is spatially distinct because its position is on the amino acid side chain of glutamate.

T1 sequence (P02768 25-609): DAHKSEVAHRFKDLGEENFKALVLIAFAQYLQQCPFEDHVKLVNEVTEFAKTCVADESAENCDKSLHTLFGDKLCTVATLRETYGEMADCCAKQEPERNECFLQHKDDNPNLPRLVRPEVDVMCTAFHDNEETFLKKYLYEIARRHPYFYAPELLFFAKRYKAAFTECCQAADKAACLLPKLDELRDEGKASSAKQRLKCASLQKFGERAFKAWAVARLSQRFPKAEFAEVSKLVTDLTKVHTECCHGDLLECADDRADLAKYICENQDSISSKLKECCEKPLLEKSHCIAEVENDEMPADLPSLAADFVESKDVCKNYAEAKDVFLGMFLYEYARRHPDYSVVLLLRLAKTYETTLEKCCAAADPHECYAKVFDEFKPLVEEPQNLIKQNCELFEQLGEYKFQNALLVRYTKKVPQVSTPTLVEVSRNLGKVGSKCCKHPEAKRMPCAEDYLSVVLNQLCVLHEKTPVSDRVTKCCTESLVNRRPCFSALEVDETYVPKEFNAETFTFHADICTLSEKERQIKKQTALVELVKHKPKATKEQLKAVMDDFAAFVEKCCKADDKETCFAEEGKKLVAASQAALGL

On to `O=C1NC2CSC(CCCCC(=O)Sc3ccccc3)C2N1` (centres unmarked) [Thiophenyl Biotin, thiophenyl ester of biotin], for which, under “maximal rate of biotinylation of HSA, best straight line fit of early time course (FIG. 2)”, the Rate was 0.0004-0.002 OD units/min. In addition, the “Fold Increase over 80 μM thiophenyl biotin” value (rate of reaction with HSA relative to thiophenyl ester of biotin) is 1 fold.
